These results are taken from patent US4393219A, “Salt of chlorhexidine” (Maruishi Pharmaceutical Co., Ltd., priority 1981, dated 1983).

Structures are written as SMILES. In brackets after ≈: the same amount, converted by molar mass. Where a name gives a salt, the structure may show the parent alone. Read-outs that look alike come from different tables or passages of the source.

For series [1] the following is noted: prior art, cited from earlier work; for solubility in water and alcohols: water and alcohols such as methanol and ethanol, in words.
Series [2] relates to Acinetobacter anitratus RIMD 0102002. Description: Minimum inhibitory concentration, Acinetobacter anitratus. The format is cell-based. As to conditions: trypticase soy broth (BBL), heart infusion agar; for MIC: Acinetobacter calcoaceticus, RIMD0102002, A. anitratus. As to the method:
Acinetobacter anitratus RIMD 0102002
(§1) The experiment was conducted according to the guide method which has been once revised and re-published by Japan Chemotherapy Association by using trypticase soy broth (BBL) as an incubation medium and heart infusion agar as a medium for determining susceptibility.

For series [3], the system named is Flavobacterium menigosepticum RIMD 0614002. The series can be described thus: Minimum inhibitory concentration, Flavobacterium menigosepticum. As to conditions: trypticase soy broth (BBL), heart infusion agar; for Minimum inhibitory concentration: F. menigosepticum. The format is cell-based. The method, then: (1) Strains employed: Flavobacterium menigosepticum RIMD 0614002 (2) Method: The experiment was conducted according to the guide method which has been once revised and re-published by Japan Chemotherapy Association by using trypticase soy broth (BBL) as an incubation medium and heart infusion agar as a medium for determining susceptibility.

Series [4] concerns Proteus vulgaris IFO 3045. Description: Minimum inhibitory concentration, Proteus vulgaris. Format: cell-based. The settings on record: trypticase soy broth (BBL), heart infusion agar; for MIC: Proteus vulgaris, IFO3045, P. vulgaris. The method, then: Proteus vulgaris IFO 3045
as §1

Series [5] relates to Pseudomonas aeruginosa IID 1117. The series can be described thus: Minimum inhibitory concentration, Pseudomonas aeruginosa. As to conditions: trypticase soy broth (BBL), heart infusion agar; for Minimum inhibitory concentration: Ps. aeruginosa. Format: cell-based. As to the method:
Pseudomonas aeruginosa IID 1117
as §1

The test system of series [6] is Serratia marcescens IFO 12648. The series can be described thus: Minimum inhibitory concentration, Serratia marcescens. The format is cell-based. The settings on record: S. marcescens, trypticase soy broth (BBL), heart infusion agar; for MIC: Serratia marcescens, IFO12648. The method, then: Serratia marcescens IFO 12648
as §1

In series [7] the test system is A. anitratus, F. menigosepticum, P. vulgaris, Ps. aeruginosa, S. marcescens. The series can be described thus: Antibiotic activity compared with chlorhexidine digluconate (five strains together). The format is cell-based. The method, then:
as §1

Series [8] is described as follows: LD50 in mice. As to conditions: mouse, in vivo, route not stated.
Series [9] is described as follows: Solubility. The settings on record: in words. Format: physicochemical.

With `[H]/N=C(\N/C(=N/[H])NCCCCCCNC(=N)NC(=N)Nc1ccc(Cl)cc1)Nc1ccc(Cl)cc1` [Chlorhexidine diacetate], in series [1], the “solubility in water and alcohols” value is “sparingly soluble”; the solubility in water was 1 g per 10,000 ml.

For orientation: MIC means the lowest concentration that inhibits growth of the organism. For the compound `[H]/N=C(\N/C(=N/[H])NCCCCCCNC(=N)NC(=N)Nc1ccc(Cl)cc1)Nc1ccc(Cl)cc1` [Chlorhexidine digluconate, chlorhexidine digluconate], the MIC in series [2] was 62.5 mg/L; in series [4], 250 mg/L; in [6], 125 mg/L. The figures for the Minimum inhibitory concentration in [3] and in [5] were 125 mg/L and 31.3 mg/L, respectively. The “solubility in water and alcohols” value in [1] is “superior solubility in water and alcohols”.

Consider `[H]/N=C(\N/C(=N/[H])NCCCCCCNC(=N)NC(=N)Nc1ccc(Cl)cc1)Nc1ccc(Cl)cc1` [Chlorhexidine dihydrochloride], for which, in series [1], the “solubility in water and alcohols” value is “sparingly soluble”; the solubility in water was 1 g per 10,000 ml.

In the case of `[H]/N=C(\N/C(=N/[H])NCCCCCCNC(=N)NC(=N)Nc1ccc(Cl)cc1)Nc1ccc(Cl)cc1` [Chlorhexidine disulfate], in series [1], the “solubility in water and alcohols” value is “sparingly soluble”; the solubility in water is reported as 1 g per 10,000 ml.

Consider `O=C1CC[C@@H](C(=O)O)N1` [Pyrrolidone-carboxylic acid, 2-Pyrrolidone-5-carboxylic acid], for which the MIC in series [2] is 4000 mg/L (≈ 31 mM); in series [3] (Flavobacterium, RIMD0614002, F. menigosepticum) it was 4000 mg/L (≈ 31 mM); in series [4], 4000 mg/L (≈ 31 mM); in [5] (Pseudomonas aeruginosa, IID1117, Ps. aeruginosa) it was 4000 mg/L (≈ 31 mM); in series [6], 4000 mg/L (≈ 31 mM).

As a reminder, the LD50 is the dose at which mortality reaches 50%. Read a high LD50 as a less toxic substance. As to `[H]/N=C(\N/C(=N/[H])NCCCCCCNC(=N)NC(=N)Nc1ccc(Cl)cc1)Nc1ccc(Cl)cc1` [Salt of this invention, chlorhexidine di-2-pyrrolidone-5-carboxylate], the Minimum inhibitory concentration amounted to 31.3 mg/L in series [2] (A. anitratus); 31.3 mg/L in series [3]; 125 mg/L in series [4] (P. vulgaris); 15.6 mg/L in series [5]; 125 mg/L in series [6]. Besides, the antibiotic activity result in [7] is on record as “more potent antibiotic activity than the known chlorhexidine digluconate”. For the same compound, the LD50 in series [8] was about 2000 mg/kg. The “solubility in acetone, chloroform and ether” value in series [9] (acetone, chloroform and ether) was “insoluble in acetone, chloroform and ether”. Moreover, the “solubility in water and alcohols” value in series [9] (water and alcohols) was “soluble in water and alcohols”.
